Assay results: PMC10799292, “The Role of β-Defensin 1 Against Porphyromonas gingivalis Lipopolysaccharide-Mediated Inflammation in the THP-1 Cell Line” (Cureus, 2023)
No end group written: not given here.

Columns and labels:
Format in all cases: cell-based, human
COX = test: Cyclooxygenase (COX) activity inhibition in lysate of Pg-LPS stimulated THP-1 cells; settings: for COX Percentage inhibition Average / COX Percentage inhibition 1 / COX Percentage inhibition 2: Pg-LPS 1 µg/mL, 24 h; for COX Percentage inhibition Average: mean of duplicates; for COX Percentage inhibition 1: replicate 1; for COX Percentage inhibition 2: replicate 2
Experimental: (§1) For inducing differentiation of THP-1 cells into macrophages, the cell line was premixed with 25 ng/mL PMA and incubated for 48 hours. After incubation, 5x10^4 cells were activated with Pg-LPS (LPS: 1 µg/mL) for one hour. Pg-LPS stimulated cells were exposed to different concentrations (6.25, 12.5, and 25 ng/mL) of β-defensin 1 and incubated for 24 hours. After incubation, the following anti-inflammatory assays were conducted utilizing the cell lysate.
The cyclooxygenase (COX) activity was assayed by the method of Walker and Gierse. The cell lysate was incubated for one minute at 25°C with Tris-HCl buffer (pH 8), glutathione 5 mM/L, and hemoglobin 5 mM/L. Arachidonic acid 200 mM/L was added to initiate the reaction, and after 20 minutes at 37°C, 200 µL of 10% trichloroacetic acid in 1 N hydrochloric acid was added to terminate the reaction. After centrifugation and addition of 200 µL of 1% thiobarbituric acid, the tubes were boiled for 20 minutes. After cooling, the tubes were centrifuged for three minutes. By reading absorbance at […], COX activity was measured, and the percentage of COX activity inhibition was calculated as per the following formula

[1] = tested on: Inducible nitric oxide synthase; test: Inducible nitric oxide synthase inhibition in lysate of Pg-LPS stimulated THP-1 cells; settings: for Inducible nitric oxide synthase Percentage inhibition Average / Inducible nitric oxide synthase Percentage inhibition 1 / Inducible nitric oxide synthase Percentage inhibition 2: Pg-LPS 1 µg/mL, 24 h; for Inducible nitric oxide synthase Percentage inhibition Average: mean of duplicates; for Inducible nitric oxide synthase Percentage inhibition 1: replicate 1; for Inducible nitric oxide synthase Percentage inhibition 2: replicate 2
Experimental: as §1
Nitric oxide synthase was measured using the method reported by Salter et al.. The cell lysate was homogenized in 2 ml of 4-(2-hydroxyethyl)-1-piperazineethanesulfonic acid (HEPES) buffer. The assay system contained 0.1 mL of 2 µmol/L L-Arginine, 0.1 mL of 4 µmol/L manganese chloride, 0.1 mL of 10 mmol/L 30 µg dithiothreitol (DTT), 0.1 mL of 1 mmol/L NADPH, 0.1 mL of 4 µmol/L tetrahydropterin, 0.1 mL of 10µmol/L oxygenated hemoglobin, and 0.1 mL of cell lysate. Enzyme activity was measured by recording an increase in absorbance at 401 nm, and the following equation was used: […]

LOX = test: Lipoxygenase (LOX) activity inhibition in lysate of Pg-LPS stimulated THP-1 cells; settings: for LOX Percentage inhibition Average / LOX Percentage inhibition 1 / LOX Percentage inhibition 2: Pg-LPS 1 µg/mL, 24 h; for LOX Percentage inhibition Average: mean of duplicates; for LOX Percentage inhibition 1: replicate 1; for LOX Percentage inhibition 2: replicate 2
Experimental: as §1
The lipoxygenase (LOX) activity was determined using the method described by Axelrod in 1981 [12]. The reaction mixture consisted of 50 µL of cell lysate, Tris-HCl buffer (pH 7.4), and 200 µL of sodium linoleate. By determining absorbance at 234 nm (Agilent Cary 60), the formation of […], an indicator of LOX activity, was tracked. The percentage inhibition of the enzyme was computed as […]

[2] = tested on: THP-1 differentiated macrophage cell line; test: Cytotoxicity evaluation of β-defensin 1 by MTT method; settings: 24 h, 12.5-200 ng/mL
Experimental: The THP-1 cell line was cultured in DMEM and supplemented with 10% FBS, sodium bicarbonate, L-glutamine, and an antibiotic solution containing penicillin (100 U/mL), amphotericin B (2.5 µg/mL), and streptomycin (100 µg/mL). The cells were maintained in a 5% humidified CO2 incubator (NBS Eppendorf, Germany) at 37°C. To induce differentiation into macrophages, the THP-1 cell line was treated with 25 ng/mL phorbol 12-myristate 13-acetate (PMA) (cat. 91585, Sigma-Aldrich, USA) and incubated for 48 hours. Following incubation, the cells were seeded in a 96-well culture plate at a density of 5x10^4 cells/well and incubated for 24 hours in a humidified 5% CO2 incubator at 37°C.
Inverted phase contrast microscopy (IPCM) using an Olympus CKX41 microscope (Olympus, Japan) equipped with an Optika Pro5 CCD camera (Optika, Italy) was utilized to directly observe the cells. Cell viability was determined using the MTT (3-(4,5-Dimethylthiazol-2-yl)-2,5-diphenyltetrazolium bromide) assay (Sigma, M-5655). […] The absorbance of this colored solution can be quantified by measuring at approximately 570 nm using a spectrophotometer.
The whole plate was analyzed under a microscope with an IPCM, and the results were photographed. […] The purple formazan crystals were dissolved in dimethyl sulfoxide (DMSO) and the absorbance (OD) was measured at 570 nm using a microplate reader. […]

[3] = 6.25, 12.5, and 25 ng/mL, Pg-LPS stimulated

β-defensin 1: β-Defensin 1 peptide was purchased from ThermoFisher Scientific, USA; cationic antimicrobial peptide (DHYNCVSSGGQCLYSACPIFTKIQGTCYRGKAKCCK; ends and bridges not checked; cysteine pairing not given here; UniProt P60022 33-68, looked up)
COX Percentage inhibition Average (COX; 6.25 ng/mL): 19.085% | COX Percentage inhibition 1 (COX; 6.25 ng/mL): 19.77% | COX Percentage inhibition 2 (COX; 6.25 ng/mL): 18.4% | COX Percentage inhibition Average (COX; 12.5 ng/mL): 35.75% | COX Percentage inhibition 1 (COX; 12.5 ng/mL): 36.41% | COX Percentage inhibition 2 (COX; 12.5 ng/mL): 35.09% | COX Percentage inhibition Average (COX; 25 ng/mL): 53.03% | COX Percentage inhibition 1 (COX; 25 ng/mL): 53.21% | COX Percentage inhibition 2 (COX; 25 ng/mL): 52.85% | COX percentage inhibition (in words) (COX; [3]): increased in a concentration-dependent manner | IC50 (COX inhibition assay) (COX; Pg-LPS 1 µg/mL 1 h, then β-defensin 1 24 h): 0.02262 µg/mL | Inducible nitric oxide synthase Percentage inhibition Average ([1]; 6.25 ng/mL): 19.08% | Inducible nitric oxide synthase Percentage inhibition 1 ([1]; 6.25 ng/mL): 18.99% | Inducible nitric oxide synthase Percentage inhibition 2 ([1]; 6.25 ng/mL): 19.17% | Inducible nitric oxide synthase Percentage inhibition Average ([1]; 12.5 ng/mL): 34.275% | Inducible nitric oxide synthase Percentage inhibition 1 ([1]; 12.5 ng/mL): 34.63% | Inducible nitric oxide synthase Percentage inhibition 2 ([1]; 12.5 ng/mL): 33.92% | Inducible nitric oxide synthase Percentage inhibition Average ([1]; 25 ng/mL): 50.135% | Inducible nitric oxide synthase Percentage inhibition 1 ([1]; 25 ng/mL): 50.27% | Inducible nitric oxide synthase Percentage inhibition 2 ([1]; 25 ng/mL): 50% | inducible nitric oxide synthase percentage inhibition (in words) [1, 3]: increased in a concentration-dependent manner | LOX Percentage inhibition Average (LOX; 6.25 ng/mL): 21.485% | LOX Percentage inhibition 1 (LOX; 6.25 ng/mL): 21.23% | LOX Percentage inhibition 2 (LOX; 6.25 ng/mL): 21.74% | LOX Percentage inhibition Average (LOX; 12.5 ng/mL): 38.08% | LOX Percentage inhibition 1 (LOX; 12.5 ng/mL): 38.85% | LOX Percentage inhibition 2 (LOX; 12.5 ng/mL): 37.31% | LOX Percentage inhibition Average (LOX; 25 ng/mL): 54.675% | LOX Percentage inhibition 1 (LOX; 25 ng/mL): 55.2% | LOX Percentage inhibition 2 (LOX; 25 ng/mL): 54.15% | LOX percentage inhibition (in words) (LOX; [3]): increased in a concentration-dependent manner | cytotoxicity (in words) [2]: dose-dependent cytotoxicity
